Values of other authors as cited in patent publication US9682051B2, “Acyclovir and meloxicam combination therapy for functional somatic syndromes” (INNOVATIVE MED CONCEPTS, LLC, priority 2012, dated 2017).

System: fibromyalgia patients
Details: valacyclovir alone

CC(C)[C@H](N)C(=O)OCCOCn1cnc2c(=O)[nH]c(N)nc21 [valacyclovir]
Outcome of treating fibromyalgia patients: not successful
